In patent US8497371B2, “Pipemidic acid derivative autotaxin inhibitors” (University of Memphis Research Foundation, priority 2009, dated 2013):
Entries after “also recorded” stand apart in the source; their conditions may differ.

What was measured:
human NPP6 = biological target: T1, human NPP6 (Homo sapiens, UniProt Q6UWR7); assay: Determination of NPP6 inhibition (pNPPC substrate); type: biochemical; conditions: 10 μM inhibitor
T1 construct: transfected with human NPP6ex^51 or human NPP7ex expression plasmids; made in house; host or cells: HEK293 cells, transient transfection, pcDNA3.1(+); unconcentrated conditioned medium (CM)
T1 sequence (Q6UWR7 23-419 limits assumed): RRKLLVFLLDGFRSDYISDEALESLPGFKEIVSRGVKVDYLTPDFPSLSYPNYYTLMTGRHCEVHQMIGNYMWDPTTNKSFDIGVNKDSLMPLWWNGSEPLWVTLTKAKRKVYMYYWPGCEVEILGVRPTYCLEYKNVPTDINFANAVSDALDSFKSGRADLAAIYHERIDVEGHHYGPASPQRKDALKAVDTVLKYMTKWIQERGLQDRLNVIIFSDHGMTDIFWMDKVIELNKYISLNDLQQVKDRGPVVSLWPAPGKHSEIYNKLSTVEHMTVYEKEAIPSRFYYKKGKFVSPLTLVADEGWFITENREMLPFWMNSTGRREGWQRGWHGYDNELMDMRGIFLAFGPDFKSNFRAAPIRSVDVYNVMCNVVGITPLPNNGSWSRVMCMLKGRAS
Description: (§1) Inhibitor selectivity was assayed using p-nitrophenylphosphoryl-choline (pNPPC) (Sigma-Aldrich, St. Louis, Mo.) as substrate for NPP6 and NPP7. The final volume (60 μL) included 20 μL (CM, NPP6 or CCM, NPP7, 20 μL inhibitor (10 μM including 1% DMSO) in assay buffer, and 20 μL pNPPC (10 mM, NPP6 or 1 NPP7) in assay buffer. NPP6 assay buffer contained 500 mM NaCl, 0.05% Triton X-100, 100 mM Tris-HCl (pH 9.0), whereas NPP7 assay buffer was comprised of 50 mM Tris HCl, pH 8.5, 150 mM NaCl, and 10 mM taurocholic acid. However, unlike the published methods, EDTA was not added to the NPP7 assay buffer. All assays were performed in 96-well, half area plates (Corning Inc., Lowell, Mass.) at 37° C. with data collected at 2 minute intervals using a Synergy2 absorbance plate reader (BioTek, Winooski, Vt.). Results are shown at the one hour time point, when all absorbance changes as a function of time were linear. Readings were normalized to vehicle control after subtraction of absorbance in the absence of CM or CCM. Data are shown as the mean±S.D. of at least three wells. All experiments were repeated twice and representative results are shown.
(§2) Assays were performed with CM or CCM from HEK293 cells transiently transfected with NPP6 and 7 expression plasmids, respectively. HEK293 cells were seeded in Dulbecco's modified Eagle's medium (DMEM) containing 10% fetal bovine serum, 100 U/ml penicillin, 100 μg/ml streptomycin (Hyclone, Logan, Utah), and 2 mM L-glutamine. HEK293 cells were grown overnight at 37° C. under 5% CO2 to 80% confluence. The cells were then transfected with human NPP6ex^51 or human NPP7ex expression plasmids in the pcDNA3.1(+) mammalian vector in the presence of Polyfect Transfection Reagent (Hyclone, Logan, Utah). Six hours after transfection, the culture medium was changed to serum free DMEM containing L-glutamine and cells were incubated for 48 hours. Expressed protein was collected (NPP6 and NPP7) and concentrated ˜10×(NPP7) using 10 kDa molecular weight cutoff filters (Millipore, Beverly, Mass.) in an Amicon pressure cell (Millipore, Beverly, Mass.).

human NPP7 = biological target: T2, human NPP7 (Homo sapiens, UniProt Q6UWV6); assay: Determination of NPP7 inhibition (pNPPC substrate); type: biochemical; conditions: 10 μM inhibitor
T2 construct: transfected with human NPP6ex^51 or human NPP7ex expression plasmids; made in house; host or cells: HEK293 cells, transient transfection, pcDNA3.1(+); conditioned medium concentrated about 10x (CCM)
T2 sequence (Q6UWV6 22-433 limits assumed): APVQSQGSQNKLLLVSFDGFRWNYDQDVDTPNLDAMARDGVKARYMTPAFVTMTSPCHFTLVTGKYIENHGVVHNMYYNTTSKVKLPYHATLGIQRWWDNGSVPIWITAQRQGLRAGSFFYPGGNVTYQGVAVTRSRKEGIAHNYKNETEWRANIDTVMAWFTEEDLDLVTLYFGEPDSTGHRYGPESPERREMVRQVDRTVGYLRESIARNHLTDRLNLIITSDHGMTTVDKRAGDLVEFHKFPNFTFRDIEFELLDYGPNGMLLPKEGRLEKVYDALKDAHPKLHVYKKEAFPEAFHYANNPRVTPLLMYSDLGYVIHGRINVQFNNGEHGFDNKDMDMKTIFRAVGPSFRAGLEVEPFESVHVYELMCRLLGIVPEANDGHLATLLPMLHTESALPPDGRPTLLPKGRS
Description: as §1, §2

ATX [1] = biological target: T3, ATX (Homo sapiens, UniProt Q13822); conditions: for Inhibition Mechanism: FS-3 substrate
ATX [2] = biological target: T3, ATX; assay: biochemical
ATX [3] = biological target: T3, ATX; assay: ATX inhibition assay with FS-3 substrate; type: biochemical; parameters: conditioned serum-free medium (CCM) from MDA-MB-435 cells as the source of ATX; endogenous in cells; host or cells: MDA-MB-435 cells (about 10x concentrated serum-free conditioned medium); conditions: for % Response at 10 μM (FS-3): 10 μM compound, FS-3 hydrolysis normalized to vehicle control (low = strong inhibition), mean ± S.D.; for single dose response comparison by aromatic substituent and position: Table 2, same values as % Response at 10 μM; for inhibition at 10 µM: single dose 10 μM, % inhibition, read-out: inhibition of ATX-mediated hydrolysis of FS-3
Description: ATX inhibition was assayed using the substrate FS-3 (Echelon Biosciences, Inc., Salt Lake City, Utah, USA). The FS-3 assay used ˜10 times concentrated conditioned serum-free medium (CCM) from MDA-MB-435 cells as the source of ATX, while CCM comprised one-third of the total volume.
All assays were performed in 96-well plates with data read at 1 minute intervals by a Synergy2 system (BioTek, Winooski, Vt.). […] Results are shown at one hour, at which point all fluorescence and absorbance changes as a function of time were linear. All readings were normalized to vehicle control after subtraction of fluorescence in the absence of CCM. Data are shown as the mean±S.D. of at least three wells. All experiments were repeated at least twice and results are shown.

[4] = Ki (μM), FS-3 substrate, for mixed mode Ki=IC50 assumed

Row | Compound | mechanism of ATX inhibition (ATX [1]) | Inhibition Mechanism (ATX [1]) | Ki (ATX [2]; Ki) [µM] | Ki (ATX [2]; [4]) [µM] | % Response at 10 μM (FS-3) (ATX [3]) [%] | IC50 (ATX [3]; FS-3 substrate) [µM] | single dose response comparison by aromatic substituent and position (ATX [3]) | inhibition at 10 µM (ATX [3]) [%] | Ki (ATX [2]; Ki (nM), competitive inhibitors) [µM] | IC50 (ATX [3]; Substrate FS-3 (1 μM)) [µM] | effect on activity of NPP6 (human NPP6) | effect on activity of NPP7 (human NPP7) | potency relative to the lead compound (ATX [1])
1 | CCn1cc(C(=O)O)c(=O)c2cnc(N3CCN(C(=S)Nc4cccc(I)c4)CC3)nc21 [Compound 29, 2-(4-{[(3-iodophenyl)amino]carbonothioyl}-1-piperazinyl)-8-ethyl-5-oxo-5,8-dihydropyrido[2,3-d]pyrimidine-6-carboxylic acid] | uncompetitive | Uncompetitive | – | – | 8.6 ± 0.9 | – | 8.6 ± 0.9 | ≥ 50 | – | – | None of the compounds affected the activity | None of the compounds affected the activity | –
2 | CCn1cc(C(=O)O)c(=O)c2cnc(N3CCN(C(=S)Nc4ccc(I)cc4)CC3)nc21 [Compound 3, 2-(4-{[(4-iodophenyl)amino]carbonothioyl}-1-piperazinyl)-8-ethyl-5-oxo-5,8-dihydropyrido[2,3-d]pyrimidine-6-carboxylic acid] | mixed-mode | Mixed | – | – | 32.7 ± 1.3 | – | 32.7 ± 1.3 | ≥ 50 | – | – | None of the compounds affected the activity | None of the compounds affected the activity | –
3 | CCn1cc(C(=O)O)c(=O)c2cnc(N3CCN(C(=S)Nc4cccc(F)c4)CC3)nc21 [Compound 25, 2-(4-{[(3-fluorophenyl)amino]carbonothioyl}-1-piperazinyl)-8-ethyl-5-oxo-5,8-dihydropyrido[2,3-d]pyrimidine-6-carboxylic acid] | – | – | – | – | 40.5 ± 1.0 | 16.1 ± 4.5 | 40.5 ± 1.0 | ≥ 50 | – | – | None of the compounds affected the activity | None of the compounds affected the activity | –
4 | CCn1cc(C(=O)O)c(=O)c2cnc(N3CCN(C(=S)Nc4cccc(OC)c4)CC3)nc21 [Compound 19, 2-(4-{[(3-methoxyphenyl)amino]carbonothioyl}-1-piperazinyl)-8-ethyl-5-oxo-5,8-dihydropyrido[2,3-d]pyrimidine-6-carboxylic acid] | – | – | – | – | 40.9 ± 1.3 | 17.7 ± 0.3 | 40.9 ± 1.3 | ≥ 50 | – | – | None of the compounds affected the activity | None of the compounds affected the activity | –

Further lines, with some results ahead:

Row | mechanism of ATX inhibition (ATX [1]) | Inhibition Mechanism (ATX [1]) | Ki (ATX [2]; Ki) [µM] | Ki (ATX [2]; [4]) [µM] | % Response at 10 μM (FS-3) (ATX [3]) [%] | IC50 (ATX [3]; FS-3 substrate) [µM] | single dose response comparison by aromatic substituent and position (ATX [3]) | inhibition at 10 µM (ATX [3]) [%] | Ki (ATX [2]; Ki (nM), competitive inhibitors) [µM] | IC50 (ATX [3]; Substrate FS-3 (1 μM)) [µM] | Compound | effect on activity of NPP6 (human NPP6) | effect on activity of NPP7 (human NPP7) | potency relative to the lead compound (ATX [1])
5 | mixed-mode | Mixed | 1.7 to 13.5 | 10.7 | 42.4 ± 0.9 | 10.7 | 42.4 ± 0.9 | ≥ 50 | – | – | CCn1cc(C(=O)O)c(=O)c2cnc(N3CCN(C(=S)Nc4ccc(Cl)cc4)CC3)nc21 [Compound 28, 2-(4-{[(4-chlorophenyl)amino]carbonothioyl}-1-piperazinyl)-8-ethyl-5-oxo-5,8-dihydropyrido[2,3-d]pyrimidine-6-carboxylic acid] | None of the compounds affected the activity | None of the compounds affected the activity | as potent as or significantly less potent than the lead
6 | competitive | Competitive | 0.16 | – | 34.1 ± 3.0 | 4.4 ± 1.5 | – | ≥ 50 | 0.03 to 0.43 | 4.4 ± 1.5 | CCn1cc(C(=O)O)c(=O)c2cnc(N3CCN(C(=S)Nc4cc(C(F)(F)F)cc(C(F)(F)F)c4)CC3)nc21 [Compound 18, 2-(4-{[(3,5-bis(trifluoromethyl)phenyl)amino]carbonothioyl}-1-piperazinyl)-8-ethyl-5-oxo-5,8-dihydropyrido[2,3-d]pyrimidine-6-carboxylic acid] | None of the compounds affected the activity | None of the compounds affected the activity | at least as potent as the lead compound
7 | mixed-mode | Mixed | 1.7 to 13.5 | 9 | 30.4 ± 1.3 | 9 | – | ≥ 50 | – | – | CCn1cc(C(=O)O)c(=O)c2cnc(N3CCN(C(=S)Nc4cc(C)cc(C)c4)CC3)nc21 [Compound 22, 2-(4-{[(3,5-dimethylphenyl)amino]carbonothioyl}-1-piperazinyl)-8-ethyl-5-oxo-5,8-dihydropyrido[2,3-d]pyrimidine-6-carboxylic acid] | None of the compounds affected the activity | None of the compounds affected the activity | as potent as or significantly less potent than the lead
8 | uncompetitive | Uncompetitive | – | 1.4 | 36.2 ± 0.9 | 1.5 | 36.2 ± 0.9 | ≥ 50 | – | 1.5 | CCn1cc(C(=O)O)c(=O)c2cnc(N3CCN(C(=S)Nc4ccc(C(F)(F)F)cc4)CC3)nc21 [Compound 31, 2-(4-{[(4-trifluoromethylphenyl)amino]carbonothioyl}-1-piperazinyl)-8-ethyl-5-oxo-5,8-dihydropyrido[2,3-d]pyrimidine-6-carboxylic acid] | None of the compounds affected the activity | None of the compounds affected the activity | at least as potent as the lead compound; also recorded: approximately equivalent to the lead
